Several values for one entry are separate records, joined by “and”; a condition that tells them apart may be missing. Equal values may be shown once. Read-outs that look alike come from different tables or passages of the source.
Assays:
[1] = system: pFLuc-opal (UGA stop mutation); experiment: FLuc cell-based readthrough assay in HeLa FLuc-opal transfected cells; parameters: key to Pharm Set: Active: as active, compounds with FLUC values >4.52 (ATALUREN FLUC value); Inactive: as inactives, compounds with FLUC values ≤4.00; Moderate: as moderate actives, compounds with 4.39≤FLUC values ≤4,51; conditions: for Pharm Set: class of activity related to the FLUC values
Source text: The results disclosed in (Pibiri I., Lentini L., Tutone M., Melfi R., Pace A., Di Leonardo A. Exploring the readthrough of nonsense mutations by non-acidic Ataluren analogues selected by ligand-based virtual screening. Eur. J. Med. Chem. 122 (2016) 429-435) have been refined with 3D-QSAR (quantitative structure-activity relationships) pharmacophore modelling. The endpoint to build QSAR models was the luciferase activity known data. These values were converted to pFLUC (−log FLUC) values. In order to find the common pharmacophore hypothesis, we divided the 24 compounds in three different classes of activity related to the FLUC values (Pharm set). We considered as active, compounds with FLUC values >4.52 (ATALUREN FLUC value), as inactives, compounds with FLUC values ≤4.00, and as moderate actives, compounds with 4.39≤FLUC values ≤4,51. Dataset was randomly split into a training set (19 compounds) for models generation, and test set (5 compounds) for the validation of developed models, as reported in Table 1.
To ascertain the effectiveness of the newly synthesized ataluren analogues in promoting the readthrough of premature termination codons was used the FLuc cell-based assay. To this aim HeLa cells were transfected transiently with the plasmids pFLuc-wild type (control) and pFLuc-opal (UGA stop mutation) (NIH Chemical Genomics Center, National Institutes of Health, Bethesda, USA). FLuc gene expression was then measured by luminescence.

[2] = system: pFLuc-opal (UGA stop mutation); conditions: luciferase activity known data, converted to pFLUC (−log FLUC); literature [1], [2]; cited from earlier work
HeLa cells = experiment: Cytotoxic effects and impact on cell proliferation in HeLa cells; type: cell-based; conditions: 12 μM
Method: HeLa cells were used to determine the possible cytotoxic effects of our compounds and the impact on cell proliferation. In FIG. 7 are reported the percentages of dead cells and proliferating cells after treatment with 12 μM compounds and 12 μM ATALUREN.

| Structure (SMILES) | Pharm Set [1] | RLU values Exp. [2] | dead cells (HeLa cells; 24 h) [%] | dead cells (HeLa cells; 72 h) [%] | RLU values Exp. ([1]; luciferase activity converted to pFLUC, [3] unpublished data) |
| --- | --- | --- | --- | --- | --- |
| O=C(O)c1cccc(-c2noc(-c3ccccc3F)n2)c1 [ATALUREN, 3-(5-(2-Fluorophenyl)-1,2,4-oxadiazol-3-yl)benzoic acid] | Active | 4.52 and 4.528 | 4 | 7 | – |
| COC(=O)c1cccc(-c2noc(-c3ccccc3F)n2)c1 [Compound 1-NV1103] | Active | 4.532 | – | – | – |
| COC(=O)c1cccc(-c2noc(-c3cccc(F)c3)n2)c1 [Compound 2-NV1127] | Moderate (as moderate actives, compounds with 4.39≤FLUC values ≤4,51) | 4.477 | – | – | – |
| O=C(O)c1cccc(-c2noc(-c3cccc(F)c3)n2)c1 [Compound 3-NV1133, 3-(5-(3-Fluorophenyl)-1,2,4-oxadiazol-3-yl)benzoic acid] | Active | 4.628 | – | – | – |
| COC(=O)c1cccc(-c2noc(-c3cc(F)c(F)cc3F)n2)c1 [Compound 4-NV1128, Methyl 3-(5-(2,4,5-trifluorophenyl)-1,2,4-oxadiazol-3-yl) benzoate)] | Moderate (as moderate actives, compounds with 4.39≤FLUC values ≤4,51) | 4.397 | – | – | – |
| O=C(O)c1cccc(-c2noc(-c3cc(F)c(F)cc3F)n2)c1 [Compound 5-NV1173, 3-(5-(2,4,5-Trifluorophenyl)-1,2,4-oxadiazol-3-yl)benzoic acid] | Active | 4.788 | – | – | – |
| COC(=O)c1cccc(-c2noc(-c3ccc(F)cc3)n2)c1 [Compound 6-NV1153] | Inactive | 4.125 | – | – | – |
| COC(=O)c1cccc(-c2noc(-c3cccc(F)c3F)n2)c1 [Compound 7-NV1149] | Inactive | 4.103 | – | – | – |
| COC(=O)c1cccc(-c2noc(-c3cccc(F)c3F)n2)c1 [Compound 8-NV1170, Methyl 3-(5-(2,3-difluorophenyl)-1,2,4-oxadiazol-3-yl)ben zoate)] | Moderate (as moderate actives, compounds with 4.39≤FLUC values ≤4,51) | 4.311 | – | – | – |
| COC(=O)c1cccc(-c2noc(-c3ccc(F)c(F)c3)n2)c1 [Compound 9-NV1175, Methyl 3-(5-(3,4-difluorophenyl)-1,2,4-oxadiazol-3-yl)ben-zoate)] | Moderate (as moderate actives, compounds with 4.39≤FLUC values ≤4,51) | 4.269 | – | – | – |
| COC(=O)c1cccc(-c2noc(-c3ccc(F)cc3F)n2)c1 [Compound 10-NV1171, Methyl 3-(5-(2,4-difluorophenyl)-1,2,4-oxadiazol-3-yl)ben-zoate)] | Moderate (as moderate actives, compounds with 4.39≤FLUC values ≤4,51) | 4.439 | – | – | – |
| COC(=O)c1cccc(-c2noc(-c3c(F)cccc3F)n2)c1 [Compound 11-NV1174, Methyl 3-(5-(2,6-difluorophenyl)-1,2,4-oxadiazol-3-yl)ben-zoate)] | Moderate (as moderate actives, compounds with 4.39≤FLUC values ≤4,51) | 4.414 | – | – | – |
| Cc1cccc(-c2noc(-c3ccccc3F)n2)c1 [Compound 12-NV1798, 3-Toluyl, 5-(2-fluorophenyl)-1,2,4-oxadiazole] | Inactive | 4.178 | – | – | – |
| COC(=O)c1cccc(-c2noc(-c3c(F)c(F)c(F)c(F)c3F)n2)c1 [Compound 13-NV1951] | Inactive | 4.008 | – | – | – |
| O=C(O)c1cccc(-c2noc(-c3c(F)c(F)c(F)c(F)c3F)n2)c1 [Compound 14-NV1954, 3-(5-(Perfluorophenyl)-1,2,4-oxadiazol-3-yl)benzoic acid] | Inactive | 4.171 | – | – | – |
| N#Cc1cccc(-c2nc(-c3ccccn3)no2)c1 [Compound 15-NV1859, 3-(2′-pyridyl)-5-(3′-cyanophenyl)-1,2,4-oxadiazole] | Moderate (as moderate actives, compounds with 4.39≤FLUC values ≤4,51) | 4.363 | – | – | – |
| Cc1cccc(-c2nc(-c3ccncc3)no2)c1 [Compound 16-NV1861, 3-(4′-pyridyl)-5-(3′-toluyl)-1,2,4-oxadiazole] | Moderate (as moderate actives, compounds with 4.39≤FLUC values ≤4,51) | 4.250 | – | – | – |
| Cc1cccc(-c2nc(-c3cccnc3)no2)c1 [Compound 17-NV1879, 3-(3′-pyridyl)-5-(3′-toluyl)-1,2,4-oxadiazole] | Moderate (as moderate actives, compounds with 4.39≤FLUC values ≤4,51) | 4.411 | – | – | – |
| Cc1cccc(-c2nc(-c3ccccc3)no2)c1 [Compound 18-NV1883, 3-(3′-phenyl)-5-(3′-toluyl)-1,2,4-oxadiazole] | Moderate (as moderate actives, compounds with 4.39≤FLUC values ≤4,51) | 4.428 | – | – | – |
| Cc1cccc(-c2noc(-c3ccccc3C)n2)c1 [Compound 19-NV1894, 3-(3-toluyl), 5-(2-toluyl)-1,2,4-oxadiazole] | Moderate (as moderate actives, compounds with 4.39≤FLUC values ≤4,51) | 4.250 | – | – | – |
| Cc1cccc(-c2noc(-c3cccc(C)c3)n2)c1 [Compound 20-NV1905, 3-(3-toluyl), 5-(3-toluyl)-1,2,4-oxadiazole] | Inactive | – | – | – | 4.181 |
| Cc1cccc(-c2nc(-c3ccccn3)no2)c1 [Compound 21-NV1898, 3-(2-pyridyl)-5-(3′-toluyl)-1,2,4-oxadiazole] | Active | 4.551 | – | – | – |
| COc1cccc(C(=O)c2nc(-c3ccncc3)no2)c1 [Compound 22-NV1919, 3-(4′-pyridyl)-5-(3′-anisoyl)-1,2,4-oxadiazole] | Moderate (as moderate actives, compounds with 4.39≤FLUC values ≤4,51) | 4.253 | – | – | – |
| COc1cccc(C(=O)c2nc(-c3ccccn3)no2)c1 [Compound 23-NV1940, 3-(2-pyridyl)-5-(3′-anisoyl)-1,2,4-oxadiazole] | Inactive | 4.000 | – | – | – |

Reference: patent publication US11203578B2, “Oxadiazole derivatives for the treatment of genetic diseases due to nonsense mutations” (UNIVERSITA' DEGLI STUDI DIPALERMO, priority 2017, dated 2021)
